Measured values as given in patent US20220362174A1, “Use of R-enantiomer Beta2-agonists for prevent and treatment of pulmonary inflammation and inflammatory remodeling for reduced adverse effects” (priority 2019, published 2022).
“Also recorded” adds a separate entry of the source.

Columns and labels:
NF-κB and MARK pathways = experiment: NF-κB and MARK pathways, cytokines and ROS in LPS sepsis
From the text: LPS interacts with pathogen recognition receptors such as TLRs would also activate NF-κB and MARK pathways, which would further lead to an over-production of cytokines. […] The “cytokine storm” in sepsis involves in excessive release of INFs, IL-1B, IL-2,4,6,10,12, TNFa and MCP etc.
In sepsis, there are also over productions of chemokines such as ROS. […] This invention disclosed the similar effects of other RS-racemic, S-enantiomer or R-enantiomer beta2 agonists including: salbutamol, bambuterol, vilanterol, clenterol, salmeterol, formoterol, trantinterol and Indacaterol and other β2 agonists.

BALB/c mice = experiment: Survival study after LPS challenge (sepsis); assay type: in vivo; conditions: for Percent of death after LPS challenges, 24 h: Saline + LPS 36.4; for Percent of death after LPS challenges, 36 h: Saline + LPS 72.7; for Percent of death after LPS challenges, 48 h / Percent of death after LPS challenges, 72 h / Percent of death after LPS challenges, 144 h: Saline + LPS 90.9; for Percent of death after LPS challenges, 12 h: Saline + LPS 0; for rate of mortality/death after LPS challenge (in words): in comparison of LPS challenged group without pretreatment (mortality 90.9%)
Method: Treatment were given intraperitoneally for 3 consecutive days. One hour after the 3rd day treatments, LPS (15 mg/kg) was administered intraperitoneally. The animals were monitored. Survival rate was then recorded every 12 h for 144 hours.

[1] = tested on: LPS-induced RAW264.7 cells; experiment: NO production (DAF-FM DA probe, Griess assay); assay type: cell-based
Method: (§1) Macrophages were treated without or with (R)/(S)-salbutamol for 1 h prior to LPS stimulation and subsequently incubated for 12 h. […] The fluorescence of the oxidized product (2′,7′-dichlorofluorescein, DCF) was assessed using an LSM710 Laser Scanning Confocal Microscope (Carl Zeiss, Jena, Germany). The concentration of NO in the culture supernatant was measured by assaying the concentrations of nitrite (a stable NO breakdown product) using the Griess assay (Beyotime, Shanghai, China), according to the manufacturer's instructions. The intracellular NO level was detected using the NO-sensitive fluorescence probe DAF-FM DA (Sigma, St. Louis, Mo., USA) (24). Cells were labeled with DAF-FM DA (10 μM) at 37° C. for 30 min and were gently washed three times with PBS. Fluorescence was detected using a LSM710 Laser Scanning Confocal Microscope (Scale bars, 100 μm) (Carl Zeiss, Jena, Germany).
In addition, the concentration of NO in the culture supernatant was measured by assaying the concentrations of nitrite (a stable NO breakdown product) using the Griess assay. […] To investigate (R)-salbutamol role on the level of iNOS, the mRNA and protein levels of iNOS were determined.

OVA induced asthma mice [2] = experiment: Combination therapy of ipratropium with R- and S-salbutamol: lung histopathology (Masson, PAS); assay type: in vivo
Method: Left lung tissue was obtained for histopathology and fixed in 10% formalin for 24 h, followed by paraffin-embedded and then were sectioned at 4 μm for routine staining with hematoxylin and eosin (H&E, Solarbio, Beijing, China), or with periodic acid-Schiff (PAS, Solarbio, Beijing, China), or submitted to Masson's trichrome staining (Baso, Zhuhai, China). Images of the stained lung sections were obtained by an Axisplus image-capturing system (Zeiss, Germany) and then a minimum of 3 bronchi (luminal diameter, 150-500 μm) were analyzed per mice for various parameters using an image analyzing computer system (IPP) by pathologists blinded to grouping. Histological score, airway smooth muscle thickness, PAS score (goblet cells hyperplasia), and collagen deposition were evaluated by a semi-quantitative scoring method.
Methods used were similar as mentioned above. Nebulized aerosol of saline, Methacholine 2 mg/ml (low dose) or 10 mg/ml (high dose) were given via inhalation to OVA induced asthma mice.

[3] = tested on: LPS-induced macrophage RAW264.7 cells; experiment: M1 macrophage cytokines (TNF-α, IL-1β, MCP-1) by ELISA; assay type: cell-based
Method: as §1
To confirm that M1 polarization was predominant over M2 polarization after stimulation with LPS, the levels of typical M1 macrophage cytokines (i.e., TNF-α, IL-1β and MCP-1) were quantified using ELISA; these cytokines are mainly synthesized by macrophages and play an important role in inflammatory diseases (35,36). This invention disclosed that TNF-α […] from 2.62-fold to 0.75-fold of control levels following LPS stimulation (FIG. 8A). IL-1β is a hallmark of many chronic inflammatory diseases in humans and is reportedly associated with acute phase reactions (35,37). […] We conclude that LPS is likely to lead to M1 polarization but not M2 polarization.

[4] = tested on: macrophages from the peritoneal fluid; experiment: LPS-induced proliferation and polarization of macrophages from the peritoneal fluid (sepsis); assay type: in vivo
From the text: Macrophage activation and proliferation was considered to be the key step of initiation and development of sepsis. In one embodiment, LPS (PAMPs from bacteria) induced a proliferation and polarization of macrophages from the peritoneal fluid. […] These inhibitory effects can be blocked by using specific β2-recepter blocker.

[5] = tested on: LPS-induced RAW264.7 cells; experiment: Seahorse analysis of OCR and ECAR; assay type: cell-based; conditions: LPS-treated cells
Method: as §1
Macrophage activation elicited different metabolic profiles. LPS-induced macrophages adopted glycolytic metabolic profiles. This invention disclosed a β2 adrenergic receptor mediated Warburg metabolism (aerobic glycolysis) of in LPS treated macrophages. The OCR and ECAR were measured using an extracellular flux analyzer. […] ECAR is a measurement extracellular acidification rate, an indication of cellular glycolytic rate.

OVA induced asthma mice [6] = experiment: Combination therapy of ipratropium with RS-, R- and S-salbutamol: airway resistance in response to methacholine; assay type: in vivo
Method: OVA sensitized/challenged asthma model Mice were sensitized and challenged with ovalbumin (OVA) or normal saline. […] On days 21, 22 and 23, the mice were challenged with 1% OVA in saline (0.01 g/mL) for 20 min via. a nebulizer (PART Turbo boy). […] In vivo airway responsiveness to methacholine (Mch) was assessed on day 28 in conscious, freely moving, spontaneously breathing mice by a whole-body plethysmography (Buxco Electronics Inc.). […] Before Mch challenge, a 20 μL drug aerosol or saline was given to the mice because of the short-acting bronchodilating effect of terbutaline. The degree of bronchoconstriction was expressed as enhanced pause (Penh), a calculated dimensionless value that correlates with measurement of airway resistance, impedance, and intrapleural pressure. […] Methods used were similar as mentioned above. Nebulized aerosol of saline, Methacholine 2 mg/ml (low dose) or 10 mg/ml (high dose) were given via inhalation to OVA induced asthma mice.

CC(C)(C)NC[C@H](O)c1ccc(O)c(CO)c1 [R-salbutamol, (R)-Salbutamol]
over production of inducible NO (iNO) and another ROS (NF-κB and MARK pathways; LPS sepsis): significantly prevent and inhibit
production or release of cytokines (cytokine storm) (NF-κB and MARK pathways; sepsis): significantly reduced
Percent of death after LPS challenges, 24 h (BALB/c mice; 0.1 mg/kg + LPS): 20%
Percent of death after LPS challenges, 36 h (BALB/c mice; 0.1 mg/kg + LPS): 20%
Percent of death after LPS challenges, 48 h (BALB/c mice; 0.1 mg/kg + LPS): 40%
Percent of death after LPS challenges, 72 h (BALB/c mice; 0.1 mg/kg + LPS): 40%
Percent of death after LPS challenges, 144 h (BALB/c mice; 0.1 mg/kg + LPS): 40%
Percent of death after LPS challenges, 12 h (BALB/c mice; 0.1 mg/kg i.p. 3 days + LPS 15 mg/kg): 0%
Percent of death after LPS challenges, 12 h (BALB/c mice; 0.5 mg/kg + LPS): 0%
Percent of death after LPS challenges, 24 h (BALB/c mice; 0.5 mg/kg + LPS): 0%
Percent of death after LPS challenges, 36 h (BALB/c mice; 0.5 mg/kg + LPS): 0%
Percent of death after LPS challenges, 48 h (BALB/c mice; 0.5 mg/kg + LPS): 0%
Percent of death after LPS challenges, 72 h (BALB/c mice; 0.5 mg/kg + LPS): 0%
Percent of death after LPS challenges, 144 h (BALB/c mice; 0.5 mg/kg + LPS): 0%
Percent of death, 12 h (BALB/c mice; 0.5 mg/kg + saline (no LPS)): 0%
Percent of death, 24 h (BALB/c mice; 0.5 mg/kg + saline (no LPS)): 0%
Percent of death, 36 h (BALB/c mice; 0.5 mg/kg + saline (no LPS)): 0%
Percent of death, 48 h (BALB/c mice; 0.5 mg/kg + saline (no LPS)): 0%
Percent of death, 72 h (BALB/c mice; 0.5 mg/kg + saline (no LPS)): 0%
Percent of death, 144 h (BALB/c mice; 0.5 mg/kg + saline (no LPS)): 0%
rate of mortality/death after LPS challenge (in words) (BALB/c mice): survived
rate of mortality/death after LPS challenge (in words) (BALB/c mice; listed as (R)-salbutamol): greatly reduced or even diminished
production/levels of NO (in words) ([1]; LPS-induced cells): significantly decreased; also recorded: inhibited
decrease of the level of DAF fluorescence (intracellular NO) ([1]; pretreated before LPS, LPS increased by 424% vs control): 2.68 fold
decrease of NO2- expression (Griess assay, culture supernatant) ([1]; pretreatment before LPS, LPS increased 20.25-fold vs control): 2.28 fold
PAS staining: goblet cell hyperplasia, mucus over secretion, airway edema (OVA induced asthma mice [2]; vs OVA model): significant therapeutic benefit
Masson staining: collagen deposition, wall thickness of bronchiole and vascular vessels (OVA induced asthma mice [2]; vs ova (model) group): significant therapeutic effects
concentration of MCP-1 (ELISA) ([3]; LPS alone 1.588 ng/mL): 1.15 ng/mL
IL-1β (ELISA) ([3]; LPS alone 2.24-fold): 1.12 fold of control levels
TNF-α (ELISA) ([3]; LPS alone 2.62-fold): 0.75 fold of control levels
release and expression of cytokines in LPS induced M1 macrophages (in words) ([3]; LPS challenge): inhibited the expression of cytokines
number of macrophages from the peritoneal fluid ([4]; LPS sepsis): significantly reduced toward normal level
polarized M1 macrophages or M2 macrophages ([4]; in comparison of sepsis condition): significant reduction
ECAR, aerobic glycolysis [5]: inhibited the aerobic glycolysis; also recorded: significantly reduced aerobic glycolysis
increase in airway resistant in response to methacholine (in words) (OVA induced asthma mice [6]): significantly diminished
increase in airway resistance after treatment (OVA induced asthma mice [6]; response to methacholine, OVA + Saline 445%): 180%
